# Counter-ions that a name gives are not always drawn.
# Legend:
# [1] = system: first lung cancer tumor organoid line; experiment: high throughput tumor organoid drug screen, per-organoid viability histogram; details: 10,000 nM dose; for viability at 10 µM: Homo sapiens, read-out: mean viability for all organoids in the plot, caspase 3/7 readout
# Description: (§1) TOs were dissociated as described above and resuspended in a 30:70% mix of GFR Matrigel:growth media at a concentration of 100 cells/μl. The solution was added to 384-well assay plates (Corning) at 20 μl per well for a final concentration of 2,000 cells per well. Assay plates were covered with a Breathe-Easy sealing membrane (Sigma Aldrich) to prevent evaporation. TOs were grown for 72 hours before drug addition. Drugs were prepared in growth media with 2.5 μM Caspase-3/7 Green Apoptosis Assay Reagent (Essen Bioscience). Serial dilutions of each molecule were prepared in 384-well polystyrene plates (Nunc). Diluted drug was added to the assay plate using an Integra Viaflo pipette (Integra) mounted on an Integra Assist Plus Pipetting Robot (Integra). Assay plates were again covered with a Breathe-Easy sealing membrane and TOs were exposed to drugs for another 72 hours before imaging.
# (§2) Prior to imaging, TOs were incubated with 4 μM Hoechst 33342 (Fisher Scientific) and 300 nM TO-PRO-3 Iodide (642/661) (Invitrogen) for 1.5-2 hours. Assay plates were imaged using an ImageXpress Micro Confocal (Molecular Devices) at 10× magnification so that ˜100-200 TOs were imaged per well. Images were acquired as 4×15 μm Z-stacks and the 2D projections were analyzed to assess cell viability. Confocal images were analyzed using the MetaXpress software (Molecular Devices) custom module editor feature to design an analysis module that identified TOs by clusters of Hoechst 33342 staining, individual cells by Hoechst 33342 staining, and dead/dying cells by either TO-PRO-3 or Caspase-3/7 staining. The result of this analysis module is a spreadsheet detailing the number of live and dead cells for every individual organoid.
# (§3) The percentage of viable cells per organoid was calculated based on the image analysis described above. Organoids with fewer than three cells and larger than the top one percent by size were excluded from analysis. The mean viability for all organoids at a given drug concentration was used in dose-response curves to calculate AUC. AUC was calculated using the computeAUC function using settings for “actual” AUC of the R Package PharmacoGx (v1.17.1). Heatmaps of AUC values were generated using the Pheatmap package (v1.0.12) in R. Scatterplots of AUC values were generated using the ggplot2 package (v3.3.0) in R.
# (§4) In this example, data for each therapy is presented as a histogram. […] Viability was determined by the systems and methods disclosed above.
# (§5) Each tumor organoid line in these examples was cultured individually in wells of a tissue culture plate, as described above.
# In this example, tissue culture wells containing a first lung cancer tumor organoid line were each exposed to one of the therapies listed above.
# [2] = system: second lung cancer tumor organoid line; experiment: as above; details: for viability at 10 µM: Homo sapiens, read-out: mean viability for all organoids in the plot
# Description: as §1, §2, §3, §4, §5
# In this example, tissue culture wells containing a second lung cancer tumor organoid line were each exposed to one of the therapies listed above.
# [3] = system: gastric cancer tumor organoid line; experiment: cells; details: for organoids of the line that are resistant to the drug / organoids with 0% viability (susceptible to the drug) / organoids with 100% viability (resistant to the drug): caspase 3/7 readout, 10,000 nM dose; for viability at 10 µM: Homo sapiens, read-out: mean viability for all organoids in the plot
# Description: as §1, §2, §3, §4, §5
# In this example, tissue culture wells containing a gastric cancer tumor organoid line were each exposed to one of the therapies listed above.
# [4] = system: first endometrial cancer tumor organoid line; experiment: high throughput tumor organoid drug screen, per-organoid viability histogram
# Description: as §1, §2, §3, §4, §5
# In this example, tissue culture wells containing a first endometrial cancer tumor organoid line were each exposed to one of the therapies listed above.
# [5] = system: colon cancer tumor organoid line; experiment: as above; assay type: cell-based, human; details: caspase 3/7 readout, 10,000 nM dose; for viability at 10 µM: Homo sapiens, read-out: mean viability for all organoids in the plot
# Description: as §1, §2, §3, §4, §5
# In this example, tissue culture wells containing a colon cancer tumor organoid line were each exposed to one of the therapies listed above.
# [6] = system: colorectal cancer tumor organoid line; experiment: as above; assay type: cell-based, human; details: caspase 3/7 readout, 10,000 nM dose; for viability at 10 µM: Homo sapiens, read-out: mean viability for all organoids in the plot
# Description: as §1, §2, §3, §4, §5
# In this example, tissue culture wells containing a colorectal cancer tumor organoid line were each exposed to one of the therapies listed above.
# [7] = system: second endometrial cancer tumor organoid line; experiment: as above; details: for viability at 10 µM: Homo sapiens, read-out: mean viability for all organoids in the plot; for organoids with 0% viability (susceptible to the drug) / organoids with 100% viability (resistant to the drug) / organoids of the line that are resistant to the drug: caspase 3/7 readout, 10,000 nM dose
# Description: as §1, §2, §3, §4, §5
# In this example, tissue culture wells containing a second endometrial cancer tumor organoid line were each exposed to one of the therapies listed above.
# [8] = system: head and neck cancer tumor organoid line; experiment: as above; details: for viability at 10 µM: Homo sapiens, read-out: mean viability for all organoids in the plot; for organoids of the line that are resistant to the drug / organoids with 0% viability (susceptible to the drug) / organoids with 100% viability (resistant to the drug): caspase 3/7 readout, 10,000 nM dose
# Description: as §1, §2, §3, §4, §5
# In this example, tissue culture wells containing a head and neck cancer tumor organoid line were each exposed to one of the therapies listed above.
# [9] = caspase 3/7 readout, 10,000 nM dose
smiles,measurement,setting,value
C[C@@]1(CO)[C@H](O)CC[C@@]2(C)[C@H]1CC[C@H]1C[C@@H]3C[C@@]12CC[C@]3(O)CO [Aphidicolin],organoids of the line that are resistant to the drug,[1]; caspase 3/7 readout,presence of organoids
same,viability at 10 µM,[2],~30%
same,organoids of the line that are resistant to the drug,[2]; [9],presence of a small proportion
same,organoids with 0% viability (susceptible to the drug),[2]; [9],Approximately 50 organoids
same,organoids with 100% viability (resistant to the drug),[2]; [9],Approximately 15 organoids
CC(=O)O/N=C1/C(=C2/C(=O)Nc3cc(Br)ccc32)Nc2ccccc21 [BIO-acetoxime],organoids of the line that are resistant to the drug,[3],general absence
same,organoids with 0% viability (susceptible to the drug),[3],Approximately 150 organoids
same,organoids with 100% viability (resistant to the drug),[3],Approximately 20 organoids
CC(C)C[C@H](NC(=O)[C@H](Cc1ccccc1)NC(=O)c1cnccn1)B(O)O [Bortezomib],viability at 10 µM,[3],~15%
same,organoids of the line that are resistant to the drug,[3],general absence
same,organoids with 0% viability (susceptible to the drug),[3],Approximately 225 organoids
same,organoids with 100% viability (resistant to the drug),[3],Approximately 15 organoids
N.N.[Cl][Pt][Cl] [Cisplatin],organoids of the line that are resistant to the drug,[4]; [9],general absence
same,organoids with 0% viability (susceptible to the drug),[4]; [9],Approximately 60 organoids
same,organoids with 100% viability (resistant to the drug),[4]; [9],Approximately 5 organoids
CC(=O)O[C@@]12CO[C@@H]1C[C@H](O)[C@@]1(C)C(=O)[C@H](O)C3=C(C)[C@@H](OC(=O)[C@H](O)[C@@H](NC(=O)OC(C)(C)C)c4ccccc4)C[C@@](O)([C@@H](OC(=O)c4ccccc4)[C@H]21)C3(C)C [Docetaxel],viability at 10 µM,[2],~30%
same,organoids of the line that are resistant to the drug,[2]; [9],presence of a small proportion
same,organoids with 0% viability (susceptible to the drug),[2]; [9],Approximately 50 organoids
same,organoids with 100% viability (resistant to the drug),[2]; [9],Approximately 20 organoids
same,viability at 10 µM,[5],~20%
same,organoids of the line that are resistant to the drug,[5],general absence
same,organoids with 0% viability (susceptible to the drug),[5],Approximately 70 organoids
same,organoids with 100% viability (resistant to the drug),[5],Approximately 15 organoids
same,viability at 10 µM,[6],~45%
same,organoids of the line that are resistant to the drug,[6],presence of organoids
same,organoids with 0% viability (susceptible to the drug),[6],Approximately 35 organoids
same,organoids with 100% viability (resistant to the drug),[6],Approximately 30 organoids
O=c1[nH]cc(F)c(=O)[nH]1 [Fluorouracil],viability at 10 µM,[5],~25%
same,organoids of the line that are resistant to the drug,[5],general absence
same,organoids with 0% viability (susceptible to the drug),[5],Approximately 70 organoids
same,organoids with 100% viability (resistant to the drug),[5],Approximately 10 organoids
Nc1ccn([C@@H]2O[C@H](CO)[C@@H](O)C2(F)F)c(=O)n1 [Gemcitabine],viability at 10 µM,[1],~35%
same,organoids of the line that are resistant to the drug,[1]; caspase 3/7 readout,presence of a small proportion
same,organoids with 100% viability (resistant to the drug),[1]; caspase 3/7 readout,Approximately 15 organoids
same,viability at 10 µM,[2],~35%
same,organoids of the line that are resistant to the drug,[2]; [9],presence of a small proportion
same,organoids with 0% viability (susceptible to the drug),[2]; [9],Approximately 30 organoids
same,organoids with 100% viability (resistant to the drug),[2]; [9],Approximately 10 organoids
CCS(=O)(=O)Nc1ccc2c(c1)/C(=C(/Nc1ccc(CN3CCCCC3)cc1)c1ccccc1)C(=O)N2 [Hesperadin],viability at 10 µM,[7],~20%
same,organoids with 0% viability (susceptible to the drug),[7],Approximately 100 organoids
same,organoids with 100% viability (resistant to the drug),[7],Approximately 5 organoids
CO[C@@H](C)Cn1c(=O)n(C)c2cnc3ccc(-c4cncc(C(C)(C)O)c4)cc3c21 [LY3023414],viability at 10 µM,[8],~15%
same,organoids of the line that are resistant to the drug,[8],general absence
same,organoids with 0% viability (susceptible to the drug),[8],Approximately 80 organoids
same,organoids with 100% viability (resistant to the drug),[8],Approximately 5 organoids
NC(=O)c1cccc2cn(-c3ccc([C@@H]4CCCNC4)cc3)nc12 [Niraparib],viability at 10 µM,[1],~25%
same,organoids of the line that are resistant to the drug,[1]; caspase 3/7 readout,presence of a small proportion
same,organoids with 0% viability (susceptible to the drug),[1]; caspase 3/7 readout,Approximately 80 organoids
same,organoids with 100% viability (resistant to the drug),[1]; caspase 3/7 readout,Approximately 20 organoids
O=C1[O][Pt]2([NH][C@@H]3CCCC[C@H]3[NH]2)[O]C1=O [Oxaliplatin],mean viability for all organoids in the plot,[4]; [9],approximately 40%
same,organoids of the line that are resistant to the drug,[4]; [9],presence of organoids
same,organoids with 0% viability (susceptible to the drug),[4]; [9],Approximately 20 organoids
same,organoids with 100% viability (resistant to the drug),[4]; [9],Approximately 18 organoids
CC(=O)O[C@H]1C(=O)[C@@]2(C)[C@H]([C@H](OC(=O)c3ccccc3)[C@]3(O)C[C@H](OC(=O)[C@H](O)[C@@H](NC(=O)c4ccccc4)c4ccccc4)C(C)=C1C3(C)C)[C@]1(OC(C)=O)CO[C@@H]1C[C@@H]2O [Paclitaxel],viability at 10 µM,[8],~40%
same,organoids of the line that are resistant to the drug,[8],presence of a small proportion
same,organoids with 0% viability (susceptible to the drug),[8],Approximately 65 organoids
same,organoids with 100% viability (resistant to the drug),[8],Approximately 35 organoids
CCCCc1nc2cc(/C=C/C(=O)NO)ccc2n1CCN(CC)CC [Pracinostat],viability at 10 µM,[3],~20%
same,organoids of the line that are resistant to the drug,[3],general absence
same,organoids with 0% viability (susceptible to the drug),[3],Approximately 120 organoids
same,organoids with 100% viability (resistant to the drug),[3],Approximately 10 organoids
"COc1cccc(OCCCN)c1-c1cc(Nc2cnc(C#N)cn2)n[nH]1 [Prexasertib, Prexasertib HCl]",viability at 10 µM,[7],~40%
same,organoids of the line that are resistant to the drug,[7],presence of a small proportion
same,organoids with 0% viability (susceptible to the drug),[7],Approximately 80 organoids
same,organoids with 100% viability (resistant to the drug),[7],Approximately 35 organoids
CCc1c2c(nc3ccc(O)cc13)-c1cc3c(c(=O)n1C2)COC(=O)[C@]3(O)CC [SN-38],mean viability for all organoids in the plot,[1]; caspase 3/7 readout,approximately 45%
same,organoids of the line that are resistant to the drug,[1]; caspase 3/7 readout,presence of organoids
same,organoids with 0% viability (susceptible to the drug),[1]; caspase 3/7 readout,Approximately 20 organoids
same,organoids with 100% viability (resistant to the drug),[1]; caspase 3/7 readout,Approximately 20 organoids
same,mean viability for all organoids in the plot,[2]; [9],approximately 20%
same,organoids of the line that are resistant to the drug,[2]; [9],general absence
same,organoids with 0% viability (susceptible to the drug),[2]; [9],Approximately 100 organoids
same,organoids with 100% viability (resistant to the drug),[2]; [9],Approximately 5 organoids
"O=C(O)/C=C/c1ccc(-c2ccc(O)c(C34CC5CC(CC(C5)C3)C4)c2)cc1 [ST-1926, Adarotene]",viability at 10 µM,"[4]; Homo sapiens, read-out: mean viability for all organoids in the plot",~30%
same,organoids of the line that are resistant to the drug,[4]; [9],general absence
same,organoids with 0% viability (susceptible to the drug),[4]; [9],Approximately 45 organoids
same,organoids with 100% viability (resistant to the drug),[4]; [9],Approximately 10 organoids
same,viability at 10 µM,[7],~40%
same,organoids of the line that are resistant to the drug,[7],presence of a small proportion
same,organoids with 0% viability (susceptible to the drug),[7],Approximately 65 organoids
same,organoids with 100% viability (resistant to the drug),[7],Approximately 40 organoids
CC(=O)Nc1cccc(-n2c(=O)n(C3CC3)c(=O)c3c(Nc4ccc(I)cc4F)n(C)c(=O)c(C)c32)c1 [Trametinib],viability at 10 µM,[6],~25%
same,organoids with 0% viability (susceptible to the drug),[6],Approximately 50 organoids
same,organoids with 100% viability (resistant to the drug),[6],Approximately 10 organoids

# Reference: patent US11415571B2, “Large scale organoid analysis” (Tempus Labs, Inc., priority 2019, dated 2022)
